Experimental data: patent publication US20100216777A1, “AMINOPYRAZINE ANALOGS FOR TREATING GLAUCOMA AND OTHER RHO KINASE-MEDIATED DISEASES AND CONDITIONS” (ALCON, INC., priority 2004, published 2010)
Structures can show the parent of a compound that is named as a salt.

Target: T1, Human Recombinant ROCK-II Enzyme (ROKα/ROCK-II, aa 11-552) (Homo sapiens, UniProt O75116)
T1 construct: (ROKα/ROCK-II, (aa 11-552), human active); purchased Upstate Biotechnology Co., Lake Placid, N.Y. 14-451
Assay: ROCK-II inhibition, fluorescence polarization assay (IMAP ROCK II kit)
Assay type: biochemical
Conditions: substrate 200 nM, ATP 10 μM, 60 min at 23° C., read-out: Enzyme Inhibition Constants (IC50) against Human Recombinant ROCK-II Enzyme
Description: The ability of certain compounds of Formula (I) to inhibit rho kinase was evaluated by means of in vitro assays. Human recombinant Rho kinase (ROKα/ROCK-II, (aa 11-552), human active, catalog #14-451, Upstate Biotechnology Co., Lake Placid, N.Y.), MgCl2/ATP cocktail, and enzyme substrate (Upstate) are used.
The fluorescence polarization assays are performed using a Biomek 2000 Robotic Workstation (Beckman Instruments, Palo Alto, Calif.) in a 96-well plate format. The assays are performed utilizing the IMAP ROCK II kit (Molecular Devices, Sunnyvale, Calif.) as follows. Substrate and ATP concentrations used are 200 nM and 10 μM, respectively, while the enzyme concentration is 3.96×10^−3 units per well. The substrate, enzyme, and ATP dilutions are made with the reaction buffer provided by the vendor. Test compounds are diluted in 10:10 DMSO-ethanol (vol/vol). For the actual assays, the various components are added into black, clear bottom, 96-well plates (Costar, Corning, N.Y.) in a final volume of 20 μl per well. After the enzyme reaction (60 min at 23° C.), 60 μl of the binding solution (IMAP kit, provided by vendor) is added per well and incubated for an additional 30 minutes in the dark at 23° C. Fluorescence polarization of the reaction mixtures is then measured on the Analyst™ HT instrument (Molecular Devices, Sunnyvale, Calif.).
The data generated are then analyzed using a non-linear, iterative, sigmoidal-fit computer program purchased from IDBS (Emeryville, Calif.) and as previously described (Sharif et al., J. Pharmacol. Exp. Ther. 286:1094-1102, 1998; Sharif et al., J. Pharmacol. Expt. Ther. 293:321-328, 2000; Sharif et al., J. Ocular Pharmacol. Ther. 18:141-162, 2002a; Sharif et al., J. Pharmac. Pharmacol. 54:539-547, 2002b) to generate the inhibition constants for the test compounds.

T1 sequence (O75116 11-552): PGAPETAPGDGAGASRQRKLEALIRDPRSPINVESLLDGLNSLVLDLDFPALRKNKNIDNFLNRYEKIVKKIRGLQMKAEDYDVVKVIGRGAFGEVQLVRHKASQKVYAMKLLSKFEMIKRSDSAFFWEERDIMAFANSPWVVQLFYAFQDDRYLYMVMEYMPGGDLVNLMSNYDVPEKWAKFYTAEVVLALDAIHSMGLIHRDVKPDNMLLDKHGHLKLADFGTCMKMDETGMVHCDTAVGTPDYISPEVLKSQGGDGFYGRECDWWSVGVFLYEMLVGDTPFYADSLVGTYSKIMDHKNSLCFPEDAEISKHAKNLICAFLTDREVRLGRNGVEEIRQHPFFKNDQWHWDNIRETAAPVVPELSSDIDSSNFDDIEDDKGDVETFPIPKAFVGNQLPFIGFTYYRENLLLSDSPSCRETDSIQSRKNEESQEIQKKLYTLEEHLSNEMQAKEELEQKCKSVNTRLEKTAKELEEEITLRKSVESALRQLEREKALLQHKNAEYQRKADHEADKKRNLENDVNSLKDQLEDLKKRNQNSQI

| IC50 [nM] | SMILES |
| --- | --- |
| 25 | CN1CCCN(c2nc(-c3cccc4[nH]ncc34)cnc2N)CC1 [Example 5, 5-(1H-indazol-4-yl)-3-(4-methyl-1,4-diazepan-1-yl)pyrazin-2-amine dihydrochloride] |
| 2.8 | CN1CCCN(c2nc(-c3cc[nH]n3)cnc2N)CC1 [Example 3, 3-(4-Methyl-1,4-diazepan-1-yl)-5-(1H-pyrazol-3-yl)pyrazin-2-amine] |
| 58 | Cc1cnccc1-c1cnc(N)c(N2CCCN(C)CC2)n1 [Example 2, 3-(4-Methyl-1,4-diazepan-1-yl)-5-(3-methylpyridin-4-yl)pyrazin-2-amine hydrochloride] |
| 0.33 | c1cc(-c2cnc(N3CCCC3)c(N3CCCNCC3)n2)ccn1 [Example 40, 1-(6-(Pyridin-4-yl)-3-(pyrrolidin-1-yl)pyrazin-2-yl)-1,4-diazepane hydrochloride] |
| 1.7 | CN1CCCN(c2nc(-c3ccncc3)cnc2N(C)C)CC1 [Example 32, N,N-dimethyl-3-(4-methyl-1,4-diazepan-1-yl)-5-(pyridin-4-yl)pyrazin-2-amine hydrochloride] |
| 17 | Nc1ncc(-c2ccncc2)nc1N1CCC(CO)CC1 [Example 11, (1-(3-Amino-6-(pyridin-4-yl)pyrazin-2-yl)piperidin-4-yl)methanol] |
| 0.064 | Nc1ncc(-c2ccncc2)nc1NC1CCNC1 (stereo not shown) [Example 19, 6-(Pyridin-4-yl)-N^2-(pyrrolidin-3-yl)pyrazine-2,3-diamine] |
| 5.6 | CN1CCC(Oc2nc(-c3ccncc3)cnc2N)CC1 [Example 20, 3-(1-Methylpiperidin-4-yloxy)-5-(pyridin-4-yl)pyrazin-2-amine] |
| 11 | CN(C)CCCOc1nc(-c2ccncc2)cnc1N(C)C [Example 36, 3-(3-(Dimethylamino)propoxy)-N,N-dimethyl-5-(pyridin-4-yl)pyrazin-2-amine hydrochloride] |
| 0.95 | CN1CCCN(c2nc(-c3ccc4[nH]ncc4c3)cnc2N)CC1 [Example 7, 5-(1H-Indazol-5-yl)-3-(4-methyl-1,4-diazepan-1-yl)pyrazin-2-amine dihydrochloride] |
| 3.5 | CN1CCC(Nc2nc(-c3ccncc3)cnc2N)CC1 [Example 14, N,N-(1-Methylpiperidin-4-yl)-6-(pyridin-4-yl)pyrazine-2,3-diamine] |
| 5.2 | COCCNc1ncc(-c2ccncc2)nc1N1CCCN(C)CC1 [Example 27, N-(2-Methoxyethyl)-3-(4-methyl-1,4-diazepan-1-yl)-5-(pyridin-4-yl)pyrazin-2-amine hydrochloride] |
| 6.4 | CN(C)C1CCN(c2nc(-c3ccncc3)cnc2N)CC1 [Example 13, 3-(4-(Dimethylamino)piperidin-1-yl)-5-(pyridin-4-yl)pyrazin-2-amine] |
| 0.033 | c1cc2[nH]ncc2cc1-c1cnc(N2CCCC2)c(N2CCCNCC2)n1 [Example 42, 5-(6-(1,4-Diazepan-1-yl)-5-(pyrrolidin-1-yl)pyrazin-2-yl)-1H-indazole hydrochloride] |
| 2.1 | CNc1ncc(-c2ccncc2)nc1NC1CCCNC1 (stereo not shown) [Example 26, N^2-Methyl-N^3-(piperidin-3-yl)-5-(pyridin-4-yl)pyrazine-2,3-diamine hydrochloride] |
| 0.68 | Nc1ncc(-c2ccncc2)nc1OC1CCCNC1 (stereo not shown) [Example 23, 3-(Piperidin-3-yloxy)-5-(pyridin-4-yl)pyrazin-2-amine] |
| 0.82 | Nc1ncc(-c2ccncc2)nc1NC1CCNCC1 [Example 16, N,N-2-(Piperidin-4-yl)-6-(pyridin-4-yl)pyrazine-2,3-diamine] |
| 0.25 | c1cc(-c2cnc(N3CCCC3)c(NC3CCCNC3)n2)ccn1 (stereo not shown) [Example 45, N-(Piperidin-3-yl)-6-(pyridin-4-yl)-3-(pyrrolidin-1-yl)pyrazin-2-amine dihydrochloride] |
| 0.53 | CN1CCCN(c2nc(-c3ccnc4[nH]ccc34)cnc2N)CC1 [Example 4, 3-(4-Methyl-1,4-diazepan-1-yl)-5-(1H-pyrrolo[2,3-b]pyridin-4-yl)pyrazin-2-amine] |
| 0.054 | c1cc(-c2cnc(N3CCCC3)c(OC3CCNCC3)n2)c2cc[nH]c2n1 [Example 47, 4-(6-(Piperidin-4-yloxy)-5-(pyrrolidin-1-yl)pyrazin-2-yl)-1H-pyrrolo[2,3-b]pyridine] |

| IC50 [nM] | SMILES |
| --- | --- |
| 45 | COCCN(C)c1ncc(-c2ccncc2)nc1N1CCCN(C)CC1 [Example 29, N-(2-Methoxyethyl)-N-methyl-3-(4-methyl-1,4-diazepan-1-yl)-5-(pyridin-4-yl)pyrazin-2-amine hydrochloride] |
| 0.16 | CN1CCCN(c2nc(-c3ccnc4[nH]ccc34)cnc2N2CCCC2)CC1 [Example 39, 4-(6-(4-Methyl-1,4-diazepan-1-yl)-5-(pyrrolidin-1-yl)pyrazin-2-yl)-1H-pyrrolo[2,3-b]pyridine dihydrochloride] |
| 53 | CN1CCCN(c2nc(-c3ccnc(N)c3)cnc2N)CC1 [Example 8, 5-(2-Aminopyridin-4-yl)-3-(4-methyl-1,4-diazepan-1-yl)pyrazin-2-amine trihydrochloride] |
| 0.56 | CN1CCCN(c2nc(-c3ccncc3)cnc2N2CCCCC2)CC1 [Example 48, 1-Methyl-4-(3-(piperidin-1-yl)-6-(pyridin-4-yl)pyrazin-2-yl)-1,4-diazepane hydrochloride] |
| 0.54 | CN1CCCN(c2nc(-c3ccnc4[nH]ncc34)cnc2N(C)C)CC1 [Example 33, N,N-Dimethyl-3-(4-methyl-1,4-diazepan-1-yl)-5-(1H-pyrazolo[3,4-b]pyridin-4-yl)pyrazin-2-amine dihydrochloride] |
| 6.9 | Nc1ncc(-c2ccncc2)nc1N1CCC(O)CC1 [Example 12, 1-(3-Amino-6-(pyridin-4-yl)pyrazin-2-yl)piperidin-4-ol] |
| 4.2 | CN1CCCC(Oc2nc(-c3ccncc3)cnc2N)C1 (stereo not shown) [Example 21, 3-(1-Methylpiperidin-3-yloxy)-5-(pyridin-4-yl)pyrazin-2-amine] |
| 0.33 | CN1CCCN(c2nc(-c3ccncc3)cnc2N2CCCC2)CC1 [Example 38, 1-Methyl-4-(6-(pyridin-4-yl)-3-(pyrrolidin-1-yl)pyrazin-2-yl)-1,4-diazepane hydrochloride] |
| 0.078 | OCCN1CCN(c2nc(-c3ccncc3)cnc2N2CCCC2)CC1 [Example 44] |
| 2.4 | CNc1ncc(-c2ccncc2)nc1N1CCCN(C)CC1 [Example 25, N-Methyl-3-(4-methyl-1,4-diazepan-1-yl)-5-(pyridin-4-yl)pyrazin-2-amine hydrochloride] |
| 0.94 | CN(C)c1ncc(-c2ccncc2)nc1OC1CCNCC1 [Example 35, N,N-Dimethyl-3-(piperidin-4-yloxy)-5-(pyridin-4-yl)pyrazin-2-amine hydrochloride] |
| 3 | CN1CCCN(c2nc(-c3ccncc3)cnc2NCCO)CC1 [Example 28, 2-(3-(4-Methyl-1,4-diazepan-1-yl)-5-(pyridin-4-yl)pyrazin-2-ylamino)ethanol hydrochloride] |
| 3.1 | CN(C)c1ncc(-c2ccncc2)nc1NC1CCCNC1 (stereo not shown) [Example 34, N,N-(Piperidin-3-yl)-6-(pyridin-4-yl)pyrazine-2,3-diamine] |
| 0.053 | CN(C)c1ncc(-c2ccnc3[nH]ccc23)nc1N1CCN(CCO)CC1 [Example 31, 2-(4-(3-(Dimethylamino)-6-(1H-pyrrolo[2,3-b]pyridin-4-yl)pyrazin-2-yl)piperazin-1-yl)ethanol] |
| 6.3 | CN1CCCN(c2nc(-c3ccncc3)cnc2N2CCOCC2)CC1 [Example 52, 4-(3-(4-Methyl-1,4-diazepan-1-yl)-5-(pyridin-4-yl)pyrazin-2-yl)morpholine trihydrochloride] |
| 59 | Nc1ncc(-c2ccncc2)nc1N1CCCCC1 [Example 10, 3-(Piperidin-1-yl)-5-(pyridin-4-yl)pyrazin-2-amine] |
| 0.19 | c1cc(-c2cnc(N3CCCCCC3)c(NC3CCCNC3)n2)ccn1 (stereo not shown) [Example 51, 3-(Azepan-1-yl)-N-(piperidin-3-yl)-6-(pyridin-4-yl)pyrazin-2-amine dihydrochloride] |
| 6.7 | CCN(CC)c1ncc(-c2ccncc2)nc1N1CCCN(C)CC1 [Example 37, N,N-Diethyl-3-(4-methyl-1,4-diazepan-1-yl)-5-(pyridin-4-yl)pyrazin-2-amine hydrochloride] |
| 22 | Nc1ncc(-c2ccncc2)nc1N(CCO)CCO [Example 9, 2,2′-(3-Amino-6-(pyridin-4-yl)pyrazin-2-ylazanediyl)diethanol] |

| SMILES | IC50 [nM] |
| --- | --- |
| CN1CCC(N(C)c2nc(-c3ccncc3)cnc2N)CC1 [Example 18, N,N-Methyl-N,N-(1-methylpiperidin-4-yl)-6-(pyridin-4-yl)pyrazine-2,3-diamine] | 9.6 |
